The record followed here is patent US8673894B2 (Hoffmann-La Roche Inc., priority 2010, dated 2014).

The structures appear in SMILES notation. Structures can show the parent of a compound that is named as a salt.

In one assay the test system is Aβ40. The assay can be described thus: Cellular Aβ-lowering assay. The assay is classed as cell-based. The settings on record: HEK293 cells stably expressing human APP695, Aβ40 in supernatant by ELISA after 18-20 hrs; read-out: Cellular assay Abeta40 IC50. Put shortly:
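HEK293 cells stably expressing human wild-type APP695 were treated with compound for 18-20 h at 37 °C in 0.8% v/v DMSO. Secreted Aβ40 in the supernatant was measured by sandwich ELISA (Aβ40 C-terminus-specific capture, HRP-4G8 detection, TMB read at 450 nm) and quantified against a pure Aβ peptide standard curve.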
On the technique in general: ELISA stands for enzyme-linked immunosorbent assay.

The target in assay [1] is T1, endogenous cellular BACE2 (Rattus norvegicus, UniProt Q6IE75).
T1 construct: endogenous cellular BACE2 in the Ins1e rat cell line; endogenous in cells; host or cells: INS-TMEM27 (INS1e-derived rat insulinoma cell line with doxycycline-inducible full-length human TMEM27)
T1 sequence (Q6IE75 63-514): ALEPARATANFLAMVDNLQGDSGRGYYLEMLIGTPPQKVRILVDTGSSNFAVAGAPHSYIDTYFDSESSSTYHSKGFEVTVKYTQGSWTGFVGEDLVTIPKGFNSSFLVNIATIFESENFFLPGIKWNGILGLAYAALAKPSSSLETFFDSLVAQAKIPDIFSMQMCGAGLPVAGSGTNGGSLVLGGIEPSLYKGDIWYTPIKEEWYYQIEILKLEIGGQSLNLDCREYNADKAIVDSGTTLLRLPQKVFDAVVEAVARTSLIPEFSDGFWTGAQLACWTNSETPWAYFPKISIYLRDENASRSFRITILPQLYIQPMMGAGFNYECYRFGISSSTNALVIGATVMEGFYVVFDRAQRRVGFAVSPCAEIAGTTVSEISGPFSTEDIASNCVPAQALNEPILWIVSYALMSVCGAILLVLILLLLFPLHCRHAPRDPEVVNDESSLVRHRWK
As to the kind of experiment: Assay for BACE inhibition by measuring cellular TMEM27 cleavage. The assay is classed as cell-based. The settings on record: INS-TMEM27 (INS1e-derived) cells, shed human TMEM27 in supernatant by ELISA. The method in brief: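 INS1e rat cells with doxycycline-inducible human TMEM27 get inhibitor 2 h before doxycycline (500 ng/ml final), then 46 h further at 37° C. Shed TMEM27 in the supernatant is measured by sandwich ELISA, and the EC50 comes from a curve fit of the ELISA signal.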

In the case of `C[C@@]1(c2cc(NC(=O)c3ncccc3F)ccc2F)CCOCC(N)=N1` [Example 6, 3-Fluoro-pyridine-2-carboxylic acid [3-((S)-3-amino-5-methyl-2,5,6,7-tetrahydro-[1,4]oxazepin-5-yl)-4-fluoro-phenyl]-amide formate], the results for the IC50 (in the assay with Aβ40; in assay [1]) were 36 nM and 3.6 nM, respectively.

With `C[C@]1(c2cc(NC(=O)c3cnc(C(F)(F)F)cn3)ccc2F)N=C(N)COCC1(F)F` [Example 101, (R)-N-(3-(3-Amino-6,6-difluoro-5-methyl-2,5,6,7-tetrahydro-1,4-oxazepin-5-yl)-4-fluorophenyl)-5-(trifluoromethyl)pyrazine-2-carboxamide formate], the figures for the IC50 (with Aβ40; in assay [1]) were 12 nM and 1110 nM, respectively.

As to `C[C@]1(c2cc(NC(=O)c3ccc(OCC(F)(F)C(F)F)cn3)ccc2F)N=C(N)COCC1(F)F` [Example 54, (R)-N-(3-(3-amino-6,6-difluoro-5-methyl-2,5,6,7-tetrahydro-1,4-oxazepin-5-yl)-4-fluorophenyl)-5-(2,2,3,3-tetrafluoropropoxy)picolinamide formate], the IC50 (in general, the concentration at which inhibition is half-maximal) worked out at 29 nM in the assay on Aβ40 and 570 nM in assay [1].

`C[C@]1(c2cc(NC3CCCC3)ccc2F)N=C(N)COC[C@@H]1F` [Example 65, (5R,6R)-5-(5-(cyclopentylamino)-2-fluorophenyl)-6-fluoro-5-methyl-2,5,6,7-tetrahydro-1,4-oxazepin-3-amine]: the IC50 is 48 nM with Aβ40 and 56 nM in assay [1].

`C[C@]1(c2cc(NC(=O)c3cnc(OCCF)cn3)ccc2F)N=C(N)COCC1(F)F` [Example 71, (R)-N-(3-(3-Amino-6,6-difluoro-5-methyl-2,5,6,7-tetrahydro-1,4-oxazepin-5-yl)-4-fluorophenyl)-5-(2-fluoroethoxy)pyrazine-2-carboxamide formate]: the IC50 in the assay on Aβ40 was 1500 nM; in assay [1] it was 12400 nM.

For `CC1(C)OCC(N)=N[C@](C)(c2cc(NC(=O)c3ccc(Cl)cn3)ccc2F)C1(F)F` [Example 110, (R)-N-(3-(3-amino-6,6-difluoro-5,7,7-trimethyl-2,5,6,7-tetrahydro-1,4-oxazepin-5-yl)-4-fluorophenyl)-5-chloropicolinamide], the IC50 in the assay with Aβ40 stood at 0.8 nM; in assay [1] it was 9.03 nM.

For `CC[C@]1(c2cc(NC(=O)c3ncccc3C(F)(F)F)ccc2F)N=C(N)COCC1(F)F` [Example 77, (R)-N-(3-(3-Amino-5-ethyl-6,6-difluoro-2,5,6,7-tetrahydro-1,4-oxazepin-5-yl)-4-fluorophenyl)-3-(trifluoromethyl)picolinamide], the IC50 amounted to 750 nM with Aβ40 and 179 nM in assay [1].

As to `C[C@]1(c2cc(NC(=O)c3ccc(F)cn3)ccc2F)N=C(N)COCC1(F)F` [Example 29, (R)-N-(3-(3-amino-6,6-difluoro-5-methyl-2,5,6,7-tetrahydro-1,4-oxazepin-5-yl)-4-fluorophenyl)-5-fluoropicolinamide formate], the IC50 in the assay on Aβ40 amounted to 5.3 nM; in assay [1], 3.3 nM.

Turning to `C[C@]1(c2cc(NC(=O)c3ncc(C(F)(F)F)cc3F)ccc2F)N=C(N)COCC1(F)F` [Example 88, (R)-N-(3-(3-Amino-6,6-difluoro-5-methyl-2,5,6,7-tetrahydro-1,4-oxazepin-5-yl)-4-fluorophenyl)-3-fluoro-5-(trifluoromethyl)picolinamide formate], the IC50 in the assay on Aβ40 was 5 nM; in assay [1] it was 354 nM.

For the molecule `CC[C@]1(c2cc(NC(=O)c3nc[nH]c3C)ccc2F)N=C(N)COCC1(F)F` [Example 100, (R)-N-(3-(3-Amino-5-ethyl-6,6-difluoro-2,5,6,7-tetrahydro-1,4-oxazepin-5-yl)-4-fluorophenyl)-5-methyl-1H-imidazole-4-carboxamide], the IC50 with Aβ40 is 2800 nM; in assay [1] it was 516 nM.

With `CC[C@]1(c2cc(NC(=O)c3ncc(Cl)cn3)ccc2F)N=C(N)COCC1(F)F` [Example 80, (R)-N-(3-(3-Amino-5-ethyl-6,6-difluoro-2,5,6,7-tetrahydro-1,4-oxazepin-5-yl)-4-fluorophenyl)-5-chloropyrimidine-2-carboxamide], the figures for the IC50 (in the assay with Aβ40; in assay [1]) were 23 nM and 55.9 nM, respectively.

Take `CCc1ocnc1C(=O)Nc1ccc(F)c([C@@]2(C)N=C(N)COCC2(F)F)c1` [Example 99, (R)-N-(3-(3-Amino-6,6-difluoro-5-methyl-2,5,6,7-tetrahydro-1,4-oxazepin-5-yl)-4-fluorophenyl)-5-ethyloxazole-4-carboxamide]: the IC50 in the assay with Aβ40 came to 130 nM; in assay [1], 118 nM.

In the case of `C[C@]1(c2cc(NC(=O)c3nn(C(F)F)cc3Cl)ccc2F)N=C(N)COC[C@@H]1F` [Example 115, N-(3-((5R,6R)-3-Amino-6-fluoro-5-methyl-2,5,6,7-tetrahydro-1,4-oxazepin-5-yl)-4-fluorophenyl)-4-chloro-1-(difluoromethyl)-1H-pyrazole-3-carboxamide], the IC50 amounted to 3.8 nM in the assay on Aβ40 and 6 nM in assay [1].
